Measurements: patent US20180338897A1, “ORAL COMPOSITIONS FOR REDUCING DENTAL STAINS” (New York University, priority 2017, published 2018)

What was measured:
[1] = Destaining of boiling beads stained with tannic acid and iron(III) chloride (Example 2); conditions: for Destaining: Experiment #1, 10 mL 0.1M solution on stained boiling beads; for Removal of stains (conclusion): Experiments #1 and #2, comparison with EDTA
Experimental: To simulate the effects of staining caused by coffee and tea, tannic acid and iron(III) chloride solutions were prepared.
To prepare the tannic acid solution, solid tannic acid was used. 0.1M FeCl3.6H2O and added to 100 mL of distilled water. 0.1 M solutions of MOPS buffer was prepared. Then 0.1M solutions of EDTA in distilled water, C-2 in MOPS, C-6 in MOPS, and deferiprone in MOPS, were prepared. For a tooth like structure, boiling beads made from synthetic silicate were used.
Methods were as follows: Experiment #1: Comparison of EDTA, C-2, and deferiprone destaining: The procedure was broken down into 2 phases: staining and destaining. In the staining phase, 7 beads were added to each of the 12 vials. 3 vials were labeled control, 3 were labeled EDTA, 3 were labeled C-2, and 3 were labeled Deferiprone. 0.1 mL of the tannic acid and iron(III) chloride were pipetted onto the boiling beads in the vials. After mixing, 9.8 mL of 0.1 M, pH 7 MOPS was added. The vials were left to stand for a week at room temperature to complete the staining. For the destaining phase, the liquid in each vial was discarded and the beads were rinsed with distilled water 3 times. Then the solutions were added to the vials according to Table 1, swirled and left for the destaining phase.
Experiment #2: Comparison of deferiprone, C-2, and C-6 destaining: The same procedure was followed for Experiment 2 except EDTA was replaced with C-6 solution.

[2] = test system: yeast (Saccharomyces cerevisiae); assay: Inhibition of yeast growth when prepared with dextrose-agar plates; assay type: cell-based
From the text: The compounds of the present disclosure can reduce stains from the surfaces of teeth. The present compounds may also have anti-microbial activity. […] Thus, the compounds and compositions of the present disclosure may be used for reduction of teeth stains and/or as antimicrobials.

[3] = Destaining of stained beads and sand white quartz (Example 3); conditions: for Relative destaining effectiveness: comparison of C11, EDTA and Deferiprone
Experimental: Tannic acid and iron chloride solutions were prepared as in Example 2. In order to simulate a tooth like structure, boiling beads made from a synthetic silicate (Techniservice) and white quartz sand were used. Four vials were prepared with the following solutions and solids (Table 3).
0.1 mL of the tannic acid and iron(III) chloride were pipetted into each vial. They were mixed on a vortex for 10 seconds. Then, 9.8 mL of 0.1 M, pH 7.4 MOPS was added to each vial to adjust the pH to a neutral level. MOPS was used to mimic the pH of saliva. The contents were mixed again. […] The vials were left to stand for a week at room temperature. The following table (Table 4) summarizes the components added to the tooth-like solids.
The solids in the vials were washed with approximately 10 mL of MOPS. This step was to simulate a wash of the “tooth” like structure with a “saliva” like buffer. The vials were left for a week to allow time for unstained areas of the beads to stain.
After the structures were stained, experiments were carried out to test if the stains could be removed. Approximately 5 mL of C11 (1-(11′-Carboxydecyl)-3-Hydroxy-2-Methyl-4-Pyridinone) solution was pipetted into Vials #1 and #3. Vials #2 and #4 served as controls. The contents of the vials were then mixed by vortexing. The vials were left to de-stain for a week. After a week, the liquid was drained from the vials and a fresh 5 mL of C11 was pipetted. Vials were left to de-stain for another week.
EDTA was prepared as follows. 100 mM of EDTA was made by adding 9.164 g to 250 mL of deionized water. The solution was stirred for 10 minutes, then placed on a heater.
Three new vials were filled with 2.2346 g, 2.0195 g, 2.2600 g of beads followed by the salt (0.1 mL), then the tannic acid (0.1 mL), and finally the MOPS. […] Three other vials were filled with 2.115 g, 2.009 g, 2.115 g of sand white quartz and the solutions were added in sequence. […] The solutions were left to continue to stain for a week. After a week, all the vials were rinsed with 10 mL of MOPS. Supernatant was removed by using filter paper. 10 mL of MOPS was then added and the contents were stirred then left to sit for a week.
1 mL of the EDTA was pipetted into each vial. The resulting concentration was 0.01 M of EDTA in each vial. Vials were then mixed to ensure proper contact with the MOPS and EDTA molecules. Vials were left to sit for a week.
Two more pairs of vials (4th and 5th pairs) were prepared—one with the beads and the other with the sand. MOPS solution was added, but not EDTA. […] Two more pairs of vials (6th and 7th pairs) were prepared, again, one with beads and the other with sand. The purpose of these controls was to test if the destaining process could be accelerated. The EDTA concentration was increased from 0.01 M to 0.1 M and 10 mL of it was subsequently added to the vials along with 10 mL of MOPS.
(§1) 0.1 M of Deferiprone solution was made by mixing 1.3957 g and 100 mL of distilled water into a volumetric flask. […] The tables below (Table 5 and Table 6) summarizes the contents of the vials used in this part of the experiment.
These vials were left to stand for a week. After the week the vials were rinsed with distilled water until the liquid that the beads/sand were suspended in were clear.
The next set of experiments was carried out to determine how quickly the compositions were able to remove the stains.
Beads and sand solutions were rinsed with 10 mL of distilled water. […] The solutions were prepared as follows: (Table 11).

[4] = Dissolution of deferiprone in distilled water; assay type: physicochemical; conditions: 0.1 M in distilled water; room temperature; magnetic bar
Experimental: as §1

yeast [5] = assay: Yeast growth curve in liquid YPD media, absorbance at 400 nm; assay type: cell-based, Saccharomyces cerevisiae; conditions: for Final absorbance / Initial absorbance: 400 nm; for Final absorbance: after 24 hr; for Initial absorbance: start of growth curve; for Effect on yeast growth: growth curve over 24 hr, FIG. 8
Experimental: (§2) The following materials were used: peptone, dextrose/glucose, marmite/yeast extract, agar, 0.1 M EDTA in MOPS solution, 0.1 M C-2 in MOPS solution, 0.1 M C-6 in MOPS solution, and […] Deferiprone in MOPS solution, and water.
(§3) The yeast culture was prepared by adding dry baker's yeast to warm water and streaked on the media plates. Cultures were allowed to grow for 16-24 hours.
The growth curve experiment were carried out by measuring the inhibition of yeast culture in the presence of EDTA, C-2, C-6, and Deferiprone over time via absorbance at 400 nm (see FIG. 8).
The growth curve was used to measure the rate of growth of yeast over an 8 hour period with a final measurement after 24 hours. No growth is seen in the presence of EDTA. C-2, C-6, and Deferiprone show different levels of effectiveness (see FIG. 8).

yeast [6] = assay: Disk diffusion on YPD agar plates with yeast cultures; assay type: cell-based, Saccharomyces cerevisiae; conditions: plates incubated at 30° C.
Experimental: as §2
Plate media was prepared containing 2% dextrose, 2% peptone, 0.36 g of yeast extract, and 1.5% agar in 1 L of water. The mixture was heated to dissolve the ingredients, and then autoclaved. 10 mL of the media was added to petri dishes to prepare plates.
as §3
Disks to which C-2, C-6, EDTA, or Deferiprone were added were added to petri dishes containing yeast cultures. The plates were incubated at 30° C. The effect on yeast growth was visualized and measured over time. The zone sizes were measured to the nearest millimeter using a ruler or caliper, including the diameter of the disk in the measurement. The measurements were rounded up to the nearest millimeter.

| Structure (SMILES) | Destaining [1] | Removal of stains (conclusion) [1] | Relative destaining effectiveness [3] | Final absorbance (yeast [5]) | Initial absorbance (yeast [5]) | Effect on yeast growth (yeast [5]) | Growth of yeast ([2]; 0.001 M) | Zone diameter (including the disk) (yeast [6]) [cm] | other results |
| --- | --- | --- | --- | --- | --- | --- | --- | --- | --- |
| Cc1c(O)c(=O)ccn1C [Deferiprone, 3-hydroxy-1,2-dimethylpyridin-4(1H)-one] | Destaining was immediately noted | effective in removal of stains and act to remove stains faster than EDTA | most effective | 0.762 | 0.389 |  |  |  | Growth of yeast ([2]; 0.003 M): inhibited the growth of yeast; Duration of effective destaining ([3]; speed experiment, all Deferiprone dilutions (10 mL, 1 mL, 0.1 mL, 0.01 mL of 0.1M)): For about an hour the destaining for all the vials except the controls continued to be effective; Stain removal immediately after addition ([3]; speed experiment, vials A3 and B3, 10 mL of 0.1M Deferiprone): the stains were removed; Stained removed? ([3]; vial A2: beads, 10 mL of 0.1M deferiprone, after a week): Yes; Stained removed? ([3]; vial A3: beads, 1 mL of 0.1M deferiprone & 9 mL of distilled water, after a week): Yes; Stained removed? ([3]; vial B2: sand white quartz, 10 mL of 0.1M deferiprone, after a week): Yes; Stained removed? ([3]; vial B3: sand white quartz, 1 mL of 0.1M deferiprone & 9 mL of distilled water, after a week): Yes; Discoloration of the solution after addition ([3]; vials A2 and B2 (beads, sand), 10 mL of 0.1M deferiprone): immediate discoloration; Discoloration of the solution after addition ([3]; vials A3 and B3 (beads, sand), 1 mL of 0.1M deferiprone & 9 mL of distilled water): relatively slower discoloration; Solubility [4]: slow solubility was observed |
| O=C(O)CN(CCN(CC(=O)O)CC(=O)O)CC(=O)O [EDTA, ethylenediaminetetraacetic acid] | slight difference after 15 minutes |  | followed by EDTA | 0.481 | 0.375 | No growth |  |  | Destaining of beads ([3]; 0.01 M EDTA in MOPS, beads, after a week): partially destained; Destaining of sand (colour of solution) ([3]; 0.01 M EDTA in MOPS, white quartz sand, after a week): solutions were clear; Bleaching of beads and sand ([3]; EDTA 0.01 M to 0.1 M, beads and sand, after over a month): most of the beads and sand were bleached |
| Cc1c(O)c(=O)ccn1CCCCCC(=O)O [C-6, 1-(6′-Carboxypentyl)-3-Hydroxy-2-Methyl-4-Pyridinone] |  | effective in removal of stains and act to remove stains faster than EDTA |  | 1.840 |  | effective, although the effect was less than EDTA and Deferiprone | inhibited the growth of yeast | 1.45 |  |
| Cc1c(O)c(=O)ccn1CC(=O)O [C-2, 1-Carboxymethyl-3-Hydroxy-2-Methyl-Pyrid-4-one] | Destaining was immediately noted | effective in removal of stains and act to remove stains faster than EDTA |  | 1.761 |  | effective, although the effect was less than EDTA and Deferiprone | inhibited the growth of yeast | 1.55 |  |
